# Measurements from patent US20210307376A1, “Compositions Comprising Nicotine and/or Nicotine Salts and Ultrasonic Aerosolisation of Compositions Comprising Nicotine and/or Nicotine Salts” (priority 2020, published 2021).
# What was measured:
# [1] = cited from earlier work; for P (octanol:water partitioning coefficient): [solute in octanol]:[solute in aqueous buffer]; for P (octanol:water partitioning coefficient) / % Aqueous: phosphate buffer; for P (octanol:water partitioning coefficient) / logP / % Aqueous: pH 7.4; for logP: octanol : aqueous phosphate buffer; for % Nonpolar: share of solute in octanol phase
# [2] = P 0.69 versus P 0.00145
# From the text: The partitioning coefficient can be used as a measure of lipid solubility.
# [3] = test system: nicotinic receptors; conditions: inhaled; compared to other nicotine salts such as nicotine salicylate; cited from earlier work
Compound,P (octanol:water partitioning coefficient) [1],logP [1],% Aqueous [1],% Nonpolar [1],increase of partitioning coefficient P in comparison to levulinic acid [2],increase in proportion of nicotine binding sites [3]
CC(=O)CCC(=O)O [Levulinic Acid],0.00145,−2.84,99.85%,0.15%,–,–
CN1CCCC1c1cccnc1 (centres unmarked) [Nicotine],2.82,0.45,26%,74%,–,–
Nicotine Levulinate,0.69,−0.16,59%,41%,500 fold,20-50%
